Series [1] is described as follows: MTT assay, PhTERT-SEAP (H1299). Type of series: cell-based, human. Conditions: human, H1299 cells carrying the PhTERT-SEAP reporter, PhTERT-SEAP (H1299); for viability at 1 μM: Conc. 1 μM, read-out: Relative MTT viability (%); for viability at 10 μM: Conc. 10 μM; for viability at 10 μM / viability at 100 μM: read-out: Relative MTT viability (%) (converted); for viability at 100 μM: Conc. 100 μM. As to the method: Further, cells were subjected to MTT assay to compare the relative toxicity or effect of each compound on cell proliferation and activity.
The above-described cells are cultured in a 96-well plate, to which was added with 25 μl MTT solution, and cultured in a 37° C. carbon dioxide incubator for 4 hours. Then, 100 μl Lysis buffer is added and incubated in a 37° C. carbon dioxide incubator overnight. An ELISA reader (Bio-Rad Model 450) is used to read optical density (O.D.) at 550 nm.
A general note: Formazan colour is commonly taken as a measure of viable cells.

A further series deals with hTERT. The series can be described thus: Secreted alkaline phosphatase (SEAP) assay, PhTERT-SEAP (H1299). In kind it is cell-based. The conditions noted are these: Homo sapiens, 24 hours; for activity at 1 µM: NCI-H1299, Conc. 1 μM, read-out: Relative SEAP activity (%); for activity at 10 µM: NCI-H1299, Conc. 10 μM; for activity at 10 µM / activity at 100 µM: read-out: Relative SEAP activity (%) (converted); for activity at 100 µM: NCI-H1299, Conc. 100 μM. As for the experimental part:
H1299 were grown in RPMI 1640 media supplemented with 10% fetal bovine serum, 100 units/mL penicillin and […] streptomycin in a humidified atmosphere with 5% CO2 at 37° C. Culture media were changed every three days. To establish stable cell lines that the expression of hTERT could be monitored by a reporter system, a about 3.3 kbp DNA fragment ranging from −3338 to +1 bp of the hTERT gene (hTERT promoter, PhTERT) was subcloned upstream to a secreted alkaline phosphatase gene (SEAP) and transfected into H1299 by electroporation. The stable clones were selected using G418. The stable clones derived from H1299 were cultured using conditions that are similar to their parental cells.
Secreted alkaline phosphatase was used as the reporter system to monitor the transcriptional activity of hTERT. Here, about 10^4 cells each were grown in 96-well plates and incubated at 37° C. for 24 hours and changed with fresh media. Varying amounts of drugs were added and cells were incubated for another 24 hours. Culture media were collected and heated at 65° C. for 10 min to inactivate heat-labile phosphatases. An equal amount of SEAP buffer (2 M diethanolamine, 1 mM MgCl2, and 20 mM L-homoarginine) was added to the media and p-nitrophenyl phosphate was added to a final concentration of 12 mM. Absorptions at 405 nm were taken, and the rate of absorption increase is determined (the increasing rate of absorbance at 405 nm was used to represent the activity of SEAP).

We go through 16 compounds from US8530465B2, “1, 2-disubstituted amido-anthraquinone derivatives, preparation method and application thereof” (National Defense Medical Center, priority 2010, dated 2013).

Compound `O=C(CCl)Nc1ccc2c(c1NC(=O)Cc1ccc(F)cc1)C(=O)c1ccccc1C2=O` [CC-24, 1-[2-(4-fluorophenyl)acetylamino]-2-(chloroacetamido)-anthraquinone] showed a melting point of 213 to 214 °C. Besides, in series [1], the viability at 1 μM is 88.9 ± 5.07%, the viability at 10 μM is 7.31% and the viability at 100 μM was 6.17%. Moreover, in the series with hTERT, the activity at 1 µM stood at 93.1 ± 5.96%, the activity at 10 µM was 8.4% and the activity at 100 µM was 1.75%.

The compound `O=C(CCl)Nc1ccc2c(c1NC(=O)C1CC1)C(=O)c1ccccc1C2=O` [CC-25, 1-[(cyclopropanecarbonyl)amino]-2-(chloroacetamido)-anthraquinone] came in with a melting point of 191 to 192 °C. Further, the viability at 1 μM in series [1] was found to be 88.7 ± 3.92%. In the series with hTERT, the activity at 1 µM came to 83.8 ± 2.67%, the activity at 10 µM is 3.46% and the activity at 100 µM was 1.38%.

`O=C(CCl)Nc1ccc2c(c1NC(=O)C1CCCCC1)C(=O)c1ccccc1C2=O` [CC-26, 1-[(cyclohexanecarbonyl)amino]-2-(chloroacetamido)-anthraquinone] displayed a melting point of 216 to 217 °C. Further, in series [1], the viability at 1 μM came out at 82.3 ± 4.4% and the viability at 10 μM is 1.54%. Further, in the series with hTERT, the activity at 1 µM was 82.5 ± 4.53%, the activity at 10 µM was 3.07% and the activity at 100 µM is 1.76%.

`O=C(CCl)Nc1ccc2c(c1NC(=O)c1ccco1)C(=O)c1ccccc1C2=O` [CC-27, 1-[(2-furoyl)amino]-2-(chloroacetamido)-anthraquinone] showed a melting point of 211 to 212 °C. Also, the viability at 1 μM in series [1] is 80.4 ± 3.56%. Moreover, in the series on hTERT, the activity at 1 µM amounted to 84.7 ± 23.3%, the activity at 10 µM is 2.94% and the activity at 100 µM is 2.62%.

On to `O=C(CCl)Nc1ccc2c(c1NC(=O)c1ccno1)C(=O)c1ccccc1C2=O` [CC-29, 1-[(5-isoxazolecarbonyl)amino]-2-(chloroacetamido)-anthraquinone], for which the melting point fell in the range of 212 to 213 °C. Further, in series [1], the viability at 1 μM is 105 ± 7.19%, the viability at 10 μM was 3.47% and the viability at 100 μM was 0.11%. In the series on hTERT, the activity at 1 µM came out at 92.5 ± 0.99%, the activity at 10 µM is 4.91% and the activity at 100 µM is 1.35%.

For the compound `Cc1cc(C(=O)Nc2c(NC(=O)CCl)ccc3c2C(=O)c2ccccc2C3=O)c(C)o1` [CC-30, 1-[(2,5-dimethyl-3-furoyl)amino]-2-(chloroacetamido)-anthraquinone], the melting point was 207 to 208 °C. Further, in series [1], the viability at 1 μM came to 96 ± 2.27% and the viability at 10 μM was 2.93%. In the series with hTERT, the activity at 1 µM worked out at 81.2 ± 1.85%, the activity at 10 µM was 2.37% and the activity at 100 µM is 0.83%.

For `O=C(CCl)Nc1ccc2c(c1NC(=O)COc1ccccc1)C(=O)c1ccccc1C2=O` [CC-31, 1-[2-(phenoxy)acetylamino]-2-(chloroacetamido)-anthraquinone], the melting point was 217 to 218 °C. In series [1], the viability at 1 μM was found to be 101 ± 4.91%, the viability at 10 μM is 66.5% and the viability at 100 μM is 4.86%. Besides, in the series with hTERT, the activity at 1 µM came out at 83 ± 1.98%, the activity at 10 µM was 72.9% and the activity at 100 µM was 4.7%.

Turning to `O=C(CCl)Nc1ccc2c(c1NC(=O)CSc1ccccc1)C(=O)c1ccccc1C2=O` [CC-32, 1-[2-(phenylsulfanyl)acetylamino]-2-(chloroacetamido)-anthraquinone], the melting point was 161 to 162 °C. In series [1], the viability at 1 μM was 88.5 ± 2.25% and the viability at 10 μM was 5.73%. For the same compound, in the series on hTERT, the activity at 1 µM is 80 ± 4.39%, the activity at 10 µM is 3.89% and the activity at 100 µM was -0.05%.

In turn, `O=C(CN1CCN(c2ccccc2F)CC1)Nc1ccc2c(c1NC(=O)c1ccccc1)C(=O)c1ccccc1C2=O` [CC-34, 1-(benzamido)-2-[2-[4-(2-fluorophenyl)piperazino]acetylamino]-anthraquinone] showed a melting point of 228 to 229 °C. Besides, in series [1], the viability at 1 μM stood at 98.6 ± 2.29%, the viability at 10 μM was 92.3 ± 2.41% and the viability at 100 μM was 27.8 ± 4.82%. Also, in the series with hTERT, the activity at 1 µM was found to be 98.7 ± 2.55%, the activity at 10 µM is 79.6 ± 1.35% and the activity at 100 µM is 15.6 ± 1.54%.

`Cc1ccc(C(=O)Nc2c(NC(=O)CN(C)C)ccc3c2C(=O)c2ccccc2C3=O)cc1` [CC-35, 1-(4-methylbenzamido)-2-[2-(dimethylamino)acetylamino]-anthraquinone]: the melting point lay within 190 to 191 °C. In series [1], the viability at 1 μM turned out to be 107 ± 2.85% and the viability at 10 μM is 88.4%. In the series on hTERT, the activity at 1 µM is 99.5 ± 3.37%, the activity at 10 µM is 78.5% and the activity at 100 µM is 9.61%.

For `Cc1ccc(C(=O)Nc2c(NC(=O)CN(C)CC3OCCO3)ccc3c2C(=O)c2ccccc2C3=O)cc1` [CC-36, 1-(4-methylbenzamido)-2-[2-[(1,3-dioxolan-2-ylmethyl)(methyl)amino]acetylamino]-anthraquinone], the melting point was 156 to 157 °C. In addition, in series [1], the viability at 1 μM amounted to 104 ± 2.12%, the viability at 10 μM was 88.6% and the viability at 100 μM was 3.78%. In the series on hTERT, the activity at 1 µM is 101 ± 3.01%, the activity at 10 µM was 76.5% and the activity at 100 µM is 10.2%.

For `Cc1ccc(C(=O)Nc2c(NC(=O)CN(C)CCc3ccccn3)ccc3c2C(=O)c2ccccc2C3=O)cc1` [CC-37, 4-methyl-N-(2-(2-(methyl(2-(pyridin-2-yl)ethyl)amino)acetamido)-9,10-dioxo-9,10-dihydroanthracen-1-yl)benzamide], the melting point was in the range of 166 to 167 °C. In series [1], the viability at 1 μM is 94.9 ± 6.49%, the viability at 10 μM is 46.2% and the viability at 100 μM is 22%. Also, in the series with hTERT, the activity at 1 µM was found to be 90.6 ± 1.48%, the activity at 10 µM is 11.9% and the activity at 100 µM was 1.47%.

In turn, `Cc1ccc(C(=O)Nc2c(NC(=O)CN3CCCCC3)ccc3c2C(=O)c2ccccc2C3=O)cc1` [CC-39, N-(9,10-dioxo-2-(2-(piperidin-1-yl)acetamido)-9,10-dihydroanthracen-1-yl)-4-methylbenzamide] gave a melting point of 213 to 214 °C. In series [1], the viability at 1 μM worked out at 86.3 ± 6.52%, the viability at 10 μM is 70.2% and the viability at 100 μM is 10.8%. Also, in the series with hTERT, the activity at 1 µM is 85.4 ± 7.56%, the activity at 10 µM was 70.1% and the activity at 100 µM is 8.3%.

For `Cc1ccc(C(=O)Nc2c(NC(=O)CN3CCC4(CC3)OCCO4)ccc3c2C(=O)c2ccccc2C3=O)cc1` [CC-40, 1-(4-methylbenzamido)-2-[2-(1,4-dioxa-8-azaspiro[4.5]dec-8-yl)acetylamino]-anthraquinone], the melting point lay within 197 to 198 °C. Also, in series [1], the viability at 1 μM was found to be 74.3 ± 6.15%, the viability at 10 μM is 55.5% and the viability at 100 μM was 16.8%. In the series with hTERT, the activity at 1 µM amounted to 78.9 ± 3.67%, the activity at 10 µM was 51.6% and the activity at 100 µM is 6.67%.

`Cc1ccc(C(=O)Nc2c(NC(=O)CN3CCOCC3)ccc3c2C(=O)c2ccccc2C3=O)cc1` [CC-41, 1-(4-methylbenzamido)-2-[(2-morpholinoacetyl)amino]-anthraquinone] returned a melting point of 225 to 226 °C. In series [1], the viability at 1 μM was determined as 81.5 ± 6.24%, the viability at 10 μM was 56.7% and the viability at 100 μM is 15.5%. In the series with hTERT, the activity at 1 µM was 98.37 ± 0.9%, the activity at 10 µM was 54.2% and the activity at 100 µM is 3.75%.

`Cc1ccc(C(=O)Nc2c(NC(=O)CN3CCSCC3)ccc3c2C(=O)c2ccccc2C3=O)cc1` [CC-42, 1-(4-methylbenzamido)-2-[2-(1,4-thiazinan-4-yl)acetylamino]-anthraquinone] returned a melting point of 210 to 211 °C. In series [1], the viability at 1 μM came to 85.8 ± 7.69%, the viability at 10 μM is 70% and the viability at 100 μM was 20%. For the same compound, in the series on hTERT, the activity at 1 µM was 88 ± 1.2%, the activity at 10 µM is 72.6% and the activity at 100 µM was 12.2%.

As usually defined, the melting point is the temperature of the solid-liquid transition. By viability is commonly meant a read-out of living cells in per cent, often relative to untreated cells.
